Here are results for 38 molecules from US6977262B2, “Dihydropyrazolopyridine compounds and pharmaceutical use thereof” (Mitsubishi Pharma Corporation, priority 2001, dated 2005).

Bounds are passed on as bounds.

What is called melting point is the temperature of the solid-liquid transition. For the molecule `COc1ccc(C2=C(C#N)C(c3cccc4nonc34)c3c[nH]nc3N2)cc1` (centres unmarked) [Example 161, 4-(2,1,3-Benzoxadiazol-4-yl)-5-cyano-4,7-dihydro-6-(4-methoxyphenyl)-2H-pyrazolo[3,4-b]pyridine], the melting point came out at 244 °C.

As to `CCCC1=C(C(=O)OCC)C(c2ccccc2Cl)c2c(n[nH]c2C)N1` (centres unmarked) [Example 230, Ethyl 4-(2-chlorophenyl)-4,7-dihydro-3-methyl-6-propyl-2H-pyrazolo[3,4-b]pyridine-5-carboxylate], the melting point fell in the range of 164 to 165 °C.

With `COc1ccccc1C1=C(C#N)C(c2ccccc2[N+](=O)[O-])c2c[nH]nc2N1` (centres unmarked) [Example 155, 5-Cyano-4,7-dihydro-6-(2-methoxyphenyl)-4-(2-nitrophenyl)-2H-pyrazolo[3,4-b]pyridine], the melting point was 207 °C.

The molecule `CCCC1=C(C#N)C(c2cccc(Br)c2)c2c[nH]nc2N1` (centres unmarked) [Example 362, 4-(3-Bromophenyl)-5-cyano-4,7-dihydro-6-propyl-2H-pyrazolo[3,4-b]pyridine] had a melting point of 202 to 205 °C.

Turning to `N#CC1=C(C2CCN(C(=N)N)CC2)Nc2n[nH]cc2C1c1cccc2nonc12` (centres unmarked) [Example 1031, 4-(2,1,3-Benzoxadiazol-4-yl)-5-cyano-4,7-dihydro-6-(1-guanylpiperidin-4-yl)-2H-pyrazolo[3,4-b]pyridine], the melting point is over 270 °C.

Regarding `CCCC1=C(C(=O)OCC)C(c2[nH]cnc2C)c2c[nH]nc2N1` (centres unmarked) [Example 236, Ethyl 4,7-dihydro-4-(4-methyl-1H-imidazol-5-yl)-6-propyl-2H-pyrazolo[3,4-b]pyridine-5-carboxylate], the melting point was in the range of 219 to 220 °C.

`CCCC1=C([N+](=O)[O-])C(c2cccc(Cl)c2Cl)c2c[nH]nc2N1` (centres unmarked) [Example 122, 4-(2,3-Dichlorophenyl)-4,7-dihydro-5-nitro-6-propyl-2H-pyrazolo[3,4-b]pyridine]: the melting point was found to be 239 °C.

As to `CN1CC=C(C2=C(C#N)C(c3cccc4nonc34)c3c[nH]nc3N2)CC1` (centres unmarked) [Example 1014, 4-(2,1,3-Benzoxadiazol-4-yl)-5-cyano-4,7-dihydro-6-(1-methyl-1,2,3,6-tetrahydropyridin-4-yl)-2H-pyrazolo[3,4-b]pyridine], the melting point amounted to 218 °C.

Molecule `CCCC1=C([N+](=O)[O-])C(c2ccccc2SC)c2c[nH]nc2N1` (centres unmarked) [Example 120, 4,7-Dihydro-4-(2-methylthiophenyl)-5-nitro-6-propyl-2H-pyrazolo[3,4-b]pyridine] had a melting point of 211 °C.

Regarding `CCCC1=C(C(=O)OCC)C(c2cccc(OC)c2OC)c2c[nH]nc2N1` (centres unmarked) [Example 46, Ethyl 4-(2,3-dimethoxyphenyl)-4,7-dihydro-6-propyl-2H-pyrazolo[3,4-b]pyridine-5-carboxylate], the melting point was 205 to 206 °C.

On to `CCCC1=C(C(=O)OC)C(c2ccccc2Cl)c2c[nH]nc2N1` (centres unmarked) [Example 28, Methyl 4-(2-chlorophenyl)-4,7-dihydro-6-propyl-2H-pyrazolo[3,4-b]pyridine-5-carboxylate], for which the melting point was in the range of 203 to 207 °C.

With `CCCC1=C(C(=O)OCC)C(c2ccccc2CC)c2cn[nH]c2N1` (centres unmarked) [Example 100, Ethyl 4-(2-ethylphenyl)-4,7-dihydro-6-propyl-1H-pyrazolo[3,4-b]pyridine-5-carboxylate], the melting point worked out at 186 °C.

`N#CC1=C(C2CCC2)Nc2n[nH]cc2C1c1cccc(C#N)c1Br` (centres unmarked) [Example 321, 4-(2-Bromo-3-cyanophenyl)-5-cyano-6-cyclobutyl-4,7-dihydro-2H-pyrazolo[3,4-b]pyridine] registered a melting point of 278 °C.

For `N#CC1=C(CO)Nc2n[nH]cc2C1c1cccc2nonc12` (centres unmarked) [Example 257, 4-(2,1,3-Benzoxadiazol-4-yl)-5-cyano-4,7-dihydro-6-hydroxymethyl-2H-pyrazolo[3,4-b]pyridine], the melting point was 215 to 220 °C (dec.).

Molecule `CC1=C(C(=O)OC(C)(C)C)C(c2ccccc2Cl)c2c[nH]nc2N1` (centres unmarked) [Example 5, t-Butyl 4-(2-chlorophenyl)-4,7-dihydro-6-methyl-2H-pyrazolo[3,4-b]pyridine-5-carboxylate] yielded a melting point of 207 °C.

Consider `CC1=C(C(=O)N(C)C)C(c2ccccc2Cl)c2c[nH]nc2N1` (centres unmarked) [Example 8, 4-(2-Chlorophenyl)-5-dimethylaminocarbonyl-4,7-dihydro-6-methyl-2H-pyrazolo[3,4-b]pyridine], for which the melting point came to 229 °C.

`N#CC1=C(C2CCCC2)Nc2n[nH]cc2C1c1cccc(C#N)c1Br` (centres unmarked) [Example 317, 4-(2-Bromo-3-cyanophenyl)-5-cyano-6-cyclopentyl-4,7-dihydro-2H-pyrazolo[3,4-b]pyridine]: the melting point was 247 °C.

In turn, `N#CC1=C(C2CCCN2)Nc2n[nH]cc2C1c1cccc2nonc12` (centres unmarked) [Example 1070, 4-(2,1,3-Benzoxadiazol-4-yl)-5-cyano-4,7-dihydro-6-(pyrrolidin-2-yl)-2H-pyrazolo[3,4-b]pyridine] yielded a melting point of over 240 °C.

For `Cc1ccccc1C1C(C#N)=C(c2ccccc2)Nc2n[nH]cc21` (centres unmarked) [Example 248, 5-Cyano-4,7-dihydro-4-(2-methylphenyl)-6-phenyl-2H-pyrazolo[3,4-b]pyridine], the melting point amounted to 246 °C.

`N#CC1=C(c2ccsc2)Nc2n[nH]cc2C1c1cccc2nonc12` (centres unmarked) [Example 174, 4-(2,1,3-Benzoxadiazol-4-yl)-5-cyano-4,7-dihydro-6-(thiophen-3-yl)-2H-pyrazolo[3,4-b]pyridine] yielded a melting point of 242 °C.

`N#CC1=C(C2CCCCC2)Nc2n[nH]cc2C1c1cccc2nonc12` (centres unmarked) [Example 323, 4-(2,1,3-Benzoxadiazol-4-yl)-5-cyano-6-cyclohexyl-4,7-dihydro-2H-pyrazolo[3,4-b]pyridine] returned a melting point of 210 °C.

In turn, `CCCCC1=C(C(=O)OCC)C(c2cccc3nonc23)c2c[nH]nc2N1` (centres unmarked) [Example 239, Ethyl 4-(2,1,3-benzoxadiazol-4-yl)-6-butyl-4,7-dihydro-2H-pyrazolo[3,4-b]pyridine-5-carboxylate] registered a melting point of 213 °C.

In the case of `C=CCCC(=O)n1ncc2c1NC(CCC)=C(C#N)C2c1ccccc1Cl` (centres unmarked) [Example 357, 4-(2-Chlorophenyl)-5-cyano-4,7-dihydro-1-(4-pentenoyl)-6-propyl-1H-pyrazolo[3,4-b]pyridine], the melting point amounted to 140 °C.

For `COCC1=C(C(=O)OC)C(c2ccccc2Cl)c2c[nH]nc2N1` (centres unmarked) [Example 84, Methyl 4-(2-chlorophenyl)-4,7-dihydro-6-methoxymethyl-2H-pyrazolo[3,4-b]pyridine-5-carboxylate], the melting point worked out at 160 °C.

In turn, `CCCC1=C(C(=O)OCC)C(c2ccccc2Cl)c2cnn(C(=O)OCC)c2N1` (centres unmarked) [Example 219, Ethyl 4-(2-chlorophenyl)-1-ethoxycarbonyl-4,7-dihydro-6-propyl-1H-pyrazolo[3,4-b]pyridine-5-carboxylate] registered a melting point of 88 to 89 °C.

`CCCC1=C(C(=O)OCC)C(c2c(OC)ccc3ccccc23)c2c[nH]nc2N1` (centres unmarked) [Example 68, Ethyl 4,7-dihydro-4-(2-methoxynaphthalen-1-yl)-6-propyl-2H-pyrazolo[3,4-b]pyridine-5-carboxylate] showed a melting point of 188 to 191 °C.

The molecule `CCCC1=C(C#N)C(c2cccnc2)c2c[nH]nc2N1` (centres unmarked) [Example 327, 5-Cyano-4,7-dihydro-6-propyl-4-(pyridin-3-yl)-2H-pyrazolo[3,4-b]pyridine] showed a melting point of 201 °C.

In turn, `N#CC1=C(c2ccccc2)Nc2n[nH]cc2C1c1cccc(C(F)(F)F)c1Cl` (centres unmarked) [Example 202, 4-(2-Chloro-3-trifluoromethylphenyl)-5-cyano-4,7-dihydro-6-phenyl-2H-pyrazolo[3,4-b]pyridine] yielded a melting point of over 250 °C.

With `CC(C)C1=C(C#N)C(c2cccc(Cl)c2Cl)c2c[nH]nc2N1` (centres unmarked) [Example 263, 5-Cyano-4-(2,3-dichlorophenyl)-4,7-dihydro-6-isopropyl-2H-pyrazolo[3,4-b]pyridine], the melting point was over 250 °C.

Molecule `N#CC1=C(C2CCNCC2)Nc2n[nH]cc2C1c1ccccc1Cl` (centres unmarked) [Example 1055, 4-(2-Chlorophenyl)-5-cyano-4,7-dihydro-6-(piperidin-4-yl)-2H-pyrazolo[3,4-b]pyridine] registered a melting point of 221 °C.

`CCCC1=C(C(=O)OCC)C(c2ccccc2Cl)c2cn(C)nc2N1` (centres unmarked) [Example 231, Ethyl 4-(2-chlorophenyl)-4,7-dihydro-2-methyl-6-propyl-2H-pyrazolo[3,4-b]pyridine-5-carboxylate] came in with a melting point of 150 to 151 °C.

In turn, `N#CC1=C(c2cc3ccccc3s2)Nc2n[nH]cc2C1c1cccc2nonc12` (centres unmarked) [Example 305, 4-(2,1,3-Benzoxadiazol-4-yl)-6-(benzothiophen-2-yl)-5-cyano-4,7-dihydro-2H-pyrazolo[3,4-b]pyridine] registered a melting point of 220 °C.

As to `COc1ccccc1C1=C(C#N)C(c2ccccc2OC)c2c[nH]nc2N1` (centres unmarked) [Example 151, 5-Cyano-4,7-dihydro-4,6-bis-(2-methoxyphenyl)-2H-pyrazolo[3,4-b]pyridine], the melting point amounted to 220 °C.

On to `COc1ccccc1C1=C(C#N)C(c2cccc3nonc23)c2c[nH]nc2N1` (centres unmarked) [Example 159, 4-(2,1,3-Benzoxadiazol-4-yl)-5-cyano-4,7-dihydro-6-(2-methoxyphenyl)-2H-pyrazolo[3,4-b]pyridine], for which the melting point was determined as 180 °C.

Consider `CCCC1=C(C(=O)OCC)C(c2cccc3c2OCCC3)c2c[nH]nc2N1` (single isomer, unassigned; (+)) [Example 187, (+)Ethyl 4-(3,4-dihydro-2H-benzopyran-8-yl)-4,7-dihydro-6-propyl-2H-pyrazolo[3,4-b]pyridine-5-carboxylate], for which the melting point was 159 to 161 °C.

For `CN1CCCN(CC2=C(C#N)C(c3ccccc3Cl)c3c[nH]nc3N2)CC1.Cl.Cl` (centres unmarked), the melting point is 204 to 206 °C (dec.).

In turn, `N#CC1=C(C2CCCCCC2)Nc2n[nH]cc2C1c1cccc(C#N)c1Br` (centres unmarked) [Example 326, 4-(2-Bromo-3-cyanophenyl)-5-cyano-6-cycloheptyl-4,7-dihydro-2H-pyrazolo[3,4-b]pyridine] yielded a melting point of 252 °C.

In turn, `CCCC1=C(C#N)C(c2ccccc2Cl)c2cnn(C(=O)OC(C)(C)C)c2N1` (centres unmarked) [Example 281, 1-tert-Butoxycarbonyl-4-(2-chlorophenyl)-5-cyano-4,7-dihydro-6-propyl-1 H-pyrazolo[3,4-b]pyridine] came in with a melting point of 98 to 102 °C.
